Results: patent US20130315920A1, “Cross Protective Epitopes of Aspergillus Fumigatus and Candida Albicans” (Cell Medica Limited, priority 2010, published 2013)

Experiments:
[1] = tested on: PBMC from additional donors; assay: Verification of HLA restriction by stimulation of PBMC from additional donors; format: cell-based, human; details: data not shown
Source text: To evaluate the utility of the Crf1 p41 epitope for potential clinical application, we defined the HLA restriction of Crf1 p41-specific CD4^+ T clones from different donors by stimulation with peptide-pulsed partially matched LCLs. […] As presentation of the Crf1 p41 peptide could also be mediated by other MHC class II alleles, we verified the HLA restriction by stimulation of PBMC from additional donors.

PBMC = assay: In vitro expansion of Crf1 p41-specific T-cell lines from PBMC; format: cell-based, human
Experimental: Cross-reactive Crf1 p41-specific T-cells show a diverse T-cell receptor (TCR) Vβ repertoire, multiple MHC class II restriction and high proliferative capacity. (a) The TCR Vβ repertoire of p41-specific CD4^+ T-cell clones is divers in different donors. TCR chains were determined by flowcytometry, PCR and/or nucleotide sequence analysis. *TCRs differ on the level of nucleotide sequence. Nomenclature is according to Wei et al^53. (b) The Crf1 p41 epitope can be presented by HLA-DRB1*03, 04 and 13 and allows cross-recognition between HLA-DRB1*03 and 13. The HLA restriction of Crf1 p41-specific T-cell clones from 5 different donors was determined by stimulation with peptide-pulsed unmatched or partially matched LCL. IFN-γ values are given after subtraction of the negative control. (c) Crf1 p41-specific T-cells are not terminally differentiated and can be rapidly expanded in vitro. […] T-cells were restimulated with autologous peptide-pulsed monocytes on day 7 and culture medium was supplemented with IL-2, IL-7 and IL-15 (representative experiments, n≧3).
For T-cell expansion, 1×10^7 PBMC were stimulated with 5 μg/ml peptide in the presence of 5 U/ml IL-2. On d7, T-cells were restimulated with autologous peptide-pulsed monocytes at a R:S ratio of 5:1 and 10 ng/ml IL-7 and IL-15 (R&D systems) were supplemented every other day until d14.
The TCR Vβ repertoire was analyzed flowcytometrically (IOTest Beta Mark Kit, Beckman Coulter), by PCR^43 and sequence analysis^44. A PE-conjugated Crf1 p41-specific HLA-DRB1*0401 MHC class II tetramer was used according to the manufacturers' instructions (Beckman Coulter).

For “HTYTIDWTKDAVTWS (Peptide found in the Crf1 protein of Aspergillus fumigatus) [p41, Crf1 aa 161-175]”, the “Reaction of PBMC to the epitope” value ([1]; 5 donors lacking HLA-DRB1*03, 04 and 13) was “all 5 donors lacking HLA-DRB1*03, 04 and 13 MHC class II alleles did not”, the “Reaction of PBMC to the epitope” value ([1]; HLA-DRB1*03, 04 and 13 donors) was “All HLA-DRB1*03, 04 and 13 donors reacted to the Crf1 p41 epitope” and the “Frequency of antigen-specific cells by HLA-DRB1*04 restricted tetramer (median)” value (PBMC; after 14 days expansion) was 50.6%. For the same sequence, the “Frequency of antigen-specific cells by HLA-DRB1*04 restricted tetramer (range)” value (PBMC; after 14 days expansion) was 42-63%, the “Cell number after expansion (median)” value (PBMC; from 10^7 PBMC within 14 days) was 3.5×10^7 cells and the “Cell number after expansion (range)” value (PBMC; from 10^7 PBMC within 14 days) was 3−4.9×10^7 cells. The “Cytokine production and proliferation of expanded T-cell lines” value (PBMC; upon antigen stimulation) was “produced high amounts of TH1 cytokines and proliferated upon antigen stimulation”.
